In US20260266828A1, “BIOMARKERS FOR PREDICTING CANCER TREATMENT EFFICACY” (Arcus Biosciences, Inc., priority 2023, published 2026):

Experiments:
[1] = tested on: MC38 cells; assay: In vitro oxaliplatin treatment of MC38 cells, flow cytometry of PD-L1 and CD155; type: cell-based, mouse; settings: dying cells, ≥1 μM, 22 h
Procedure: (§1) Lines and error represent the mean±standard deviation (SD) of biological triplicates. […] In FIG. 5B and FIG. 5C, lines and error represent the mean±SD of biological duplicates.
(§2) For flow cytometry, MC38 cells were plated in supplemented RPMI medium at 1×10^5 cells/well in a 12-well tissue culture plate. For CellTiter-Glo (Promega) analysis, cells were plated in supplemented RPMI medium at 5×10^3 cells/well in a 96-well white flat-bottom tissue culture plate. […] Data were normalized to PBS treated cells. For flow cytometry, cells were harvested using a cell scraper, and transferred into a 96-well round-bottom plate for staining. Cells were washed, incubated with live-dead aqua and anti-mouse CD16/CD32 Fc block at RT followed by cell surface staining with anti-mouse PD-L1 BV711 (clone MIH4, BD Biosciences) and anti-mouse CD155 BUV395 (clone 3F1, BD Biosciences) at 4° C. Cells were washed, fixed with IC fixation buffer (Invitrogen) at RT, washed again, and resuspended in PBS for flow cytometry.

[2] = tested on: MC38 tumors; assay: Flow cytometry phenotyping of MC38 tumors and tdLN after treatment; type: in vivo, mouse; settings: three days after the first OXA exposure
Procedure: Methods—Mouse tumor-infiltrating lymphocyte and lymph node phenotyping. MC38 tumors were minced with scissors and dissociated with tumor digestion buffer [RPMI 1640 supplemented with 20% FBS, 0.25 mg/mL Collagenase D (Roche), and 100 KUnits/mL Type IV DNase I (Sigma-Aldrich)]. Single-cell tumor suspensions were passed through a 70 μm cell strainer and washed. Inguinal lymph nodes were collected from the same side as the tumor (tumor-draining lymph node, tdLN), minced, passed through a 70 μm cell strainer and washed. A total of 1×10^6 tumor or lymph node cells per well were incubated at room temperature (RT) with live-dead NIR (Invitrogen) and anti-mouse CD16/CD32 Fc block (BD Biosciences). For p15E tetramer staining, cells were washed and incubated with tetramer at RT. Cells were stained for surface and intracellular markers and analyzed by flow cytometry as indicated above.
In vivo experiments were performed at Arcus Biosciences in accordance with federal, state, and institutional guidelines and were approved by Arcus Biosciences' Institutional Animal Care and Use Committee. Female 6-8 week old C57BL/6J mice were purchased from Charles River Laboratories. Mice were injected subcutaneously on the right flank with 1×10^6 MC38 cells in 100 μL PBS. Once tumors were established (sized indicated in figure legends), mice were randomized into groups based on tumor size distribution. […] The dosing regimens for anti-PD-1 and anti-TIGIT were determined via receptor occupancy (RO) assays using commercially available a competitive anti-TIGIT antibody (clone GIGD7), a non-competitive PD-1 antibody (clone J43) as well as direct detection of both anti-TIGIT and anti-PD-1 via secondary antibody (Jackson Immunoresearch anti-mouse IgG, Fcγ subclass 2a specific). The dosing regimen for FTY720 was determined in naïve C57BL/6 females by examining lymphocyte frequencies and numbers in the blood 24 h after dosing. Tumor volume was monitored with digital calipers and volume was calculated using the formula: (Length×Width^2)/2. […]

[3] = tested on: MC38 cells; settings: 1 μM, 72 hours
Procedure: as §1, §2

[4] = tested on: first line (1L) metastatic NSCLC; assay: Real-world progression free survival analysis by CD155 gene expression, de-identified health records; type: in vivo, human
From the text: This example retrospectively evaluated the predictive value of CD155 expression for a clinical outcome using real-world data. […] Real-world progression free survival (rwPFS) is defined in this study as the time from treatment initiation until the first occurrence of progressive disease (PD) or death up to the end date of the same line of therapy. […] Otherwise, patients were censored at the last known follow up time. rwPFS is right censored at 36 months. The analysis was performed using de-identified health records of first line (1L) metastatic NSCLC patients treated with chemotherapy only, treated with pembrolizumab monotherapy, or treated with chemotherapy and pembrolizumab. A filter was applied to select for records where biopsies were obtained ≤12 months prior to the first dose of treatment. Records were excluded if the patient had EGF or ALK alterations.
The health records for each patient included information such as sex, race, smoking status, biopsy site, stage at time of diagnosis, subtype of lung cancer (adenocarcinoma or squamous cell carcinoma), tumor purity, PD-L1 expression, treatment (chemotherapy, pembrolizumab, or chemotherapy+pembrolizumab), clinical outcome, etc., as well as gene expression data for a number of targets (e.g., TIGIT, CD155, CD73). Chemotherapy for adenocarcinomas was cisplatin or carboplatin+pemetrexed. Chemotherapy for squamous cell carcinomas was either carboplatin and paclitaxel or nab-paclitaxel. Gene expression was quantified from RNA-seq data as transcript per million (tpm). Kaplan-Meier models were performed by gene and according to the following breakdowns: NSCLC subtype (all; adenocarcinoma only; squamous cell carcinoma only), PD-L1 expression (all; <1% TPS; 1-49% TPS; ≥50% TPS), and treatment (chemotherapy only, pembrolizumab only, chemotherapy and pembrolizumab). Results presented as Kaplan-Meier (KM) plots splitting high and low gene expressors into different groups, whereby high gene expression was defined as expression equal to or greater than a cut-off value determined by one of several threshold methodologies (e.g., median, 1st tertile (1st third vs last two thirds), 2nd tertile (two thirds vs. last third) and MaxStat (an outcome-oriented method providing a value of a cutpoint that corresponds to the most significant relation with outcome). Cox Proportional-Hazards tests were used to assess the effect of gene expression as a continuous variable, and hazard ratios were provided with each KM plot using the low gene expressor group as a reference.

[5] = tested on: Jurkat cell line stably overexpressing human TIGIT; settings: increasing concentrations up to 33 nM; cited from earlier work
[6] = tested on: FcγR isotypes I, IIA, JIB, IIIA, and IIIB; design: dose or concentration left out as unconfirmed; settings: compared with wild-type IgG1 control antibody; cited from earlier work
[7] = molecular target: T1, FcγR-IIIA (V158 high-affinity variant) (Homo sapiens, UniProt P08637, F176V); design: dose or concentration left out as unconfirmed; settings: cited from earlier work
T1 construct: expressed in transfected cells
T1 sequence (P08637 17-254 F176V): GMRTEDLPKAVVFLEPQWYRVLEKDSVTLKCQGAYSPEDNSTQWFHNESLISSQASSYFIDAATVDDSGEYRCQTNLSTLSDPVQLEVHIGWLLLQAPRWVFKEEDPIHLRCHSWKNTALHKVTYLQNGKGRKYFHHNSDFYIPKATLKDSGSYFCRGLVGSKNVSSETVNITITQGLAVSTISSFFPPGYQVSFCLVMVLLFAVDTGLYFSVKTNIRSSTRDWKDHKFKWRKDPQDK

For `O=C1[O][Pt]2([NH][C@@H]3CCCC[C@H]3[NH]2)[O]C1=O` [OXA, oxaliplatin], which “expression of PD-L1 and CD155 ligands” value [1] is on record?
The value was “increased expression”.

And the “TCF-1 positivity in tumoral CD8+ T cells” value [2]?
Its value is “increase”.

What about the intratumoral monocytes [2] of the same molecule?
Its intratumoral monocytes is “decreases”.

And the tumor neutrophils [2]?
Its tumor neutrophils is “increase”.

And the cancer cell death [3]?
The cancer cell death was roughly 100%.

Which results are given for pembrolizumab?
Median real-world progression-free survival (rwPFS) ([4]; CD155 High, threshold method Median, PD-L1 TPS 1-49%): 5.4 mo; Median real-world progression-free survival (rwPFS) ([4]; CD155 High, threshold method Median, PD-L1 TPS <1%): 13.8 mo; Median real-world progression-free survival (rwPFS) ([4]; CD155 High, threshold method Median, PD-L1 TPS All): 7.67 mo; Median real-world progression-free survival (rwPFS) ([4]; CD155 High, threshold method Median, PD-L1 TPS ≥50%): 8.53 mo; Median real-world progression-free survival (rwPFS) ([4]; CD155 High, threshold method q33, PD-L1 TPS 1-49%): 4.63 mo; Median real-world progression-free survival (rwPFS) ([4]; CD155 High, threshold method q33, PD-L1 TPS <1%): 8.1 mo; Median real-world progression-free survival (rwPFS) ([4]; CD155 High, threshold method q33, PD-L1 TPS All): 8.07 mo; Median real-world progression-free survival (rwPFS) ([4]; CD155 High, threshold method q33, PD-L1 TPS ≥50%): 8.63 mo; Median real-world progression-free survival (rwPFS) ([4]; CD155 High, threshold method q67, PD-L1 TPS 1-49%): 3.93 mo; Median real-world progression-free survival (rwPFS) ([4]; CD155 High, threshold method q67, PD-L1 TPS <1%): 13.8 mo; Median real-world progression-free survival (rwPFS) ([4]; CD155 High, threshold method q67, PD-L1 TPS All): 7.03 mo; Median real-world progression-free survival (rwPFS) ([4]; CD155 High, threshold method q67, PD-L1 TPS ≥50%): 7.23 mo; Median real-world progression-free survival (rwPFS) ([4]; CD155 Low, threshold method Median, PD-L1 TPS 1-49%): 6.2 mo; Median real-world progression-free survival (rwPFS) ([4]; CD155 Low, threshold method Median, PD-L1 TPS <1%): 8.1 mo; Median real-world progression-free survival (rwPFS) ([4]; CD155 Low, threshold method Median, PD-L1 TPS All): 10.3 mo; Median real-world progression-free survival (rwPFS) ([4]; CD155 Low, threshold method Median, PD-L1 TPS ≥50%): 14.1 mo; Median real-world progression-free survival (rwPFS) ([4]; CD155 Low, threshold method q33, PD-L1 TPS 1-49%): 9.67 mo; Median real-world progression-free survival (rwPFS) ([4]; CD155 Low, threshold method q33, PD-L1 TPS <1%): 8.1 mo; Median real-world progression-free survival (rwPFS) ([4]; CD155 Low, threshold method q33, PD-L1 TPS All): 13.3 mo; Median real-world progression-free survival (rwPFS) ([4]; CD155 Low, threshold method q33, PD-L1 TPS ≥50%): 17.1 mo; Median real-world progression-free survival (rwPFS) ([4]; CD155 Low, threshold method q67, PD-L1 TPS 1-49%): 7.1 mo; Median real-world progression-free survival (rwPFS) ([4]; CD155 Low, threshold method q67, PD-L1 TPS <1%): 8.1 mo; Median real-world progression-free survival (rwPFS) ([4]; CD155 Low, threshold method q67, PD-L1 TPS All): 9.67 mo; Median real-world progression-free survival (rwPFS) ([4]; CD155 Low, threshold method q67, PD-L1 TPS ≥50%): 11.7 mo

B1: domvanalimab (antibody, chains of the INN, looked up, V domains shown)
VH: EVQLVESGGGLVQPGGSLRLSCAASGFTFSNFGMHWVRQAPGKGLEWVAFISSGSSSIYYADTVKGRFTISRDNAKNSLYLQMNSLRAEDTAVYYCARMRLDYYAMDYWGQGTMVTVSS
VL: DIQMTQSPSSLSASVGDRVTITCRASKSISKYLAWYQQKPGKAPKLLIYSGSTLQSGVPSRFSGSGSGTDFTLTISSLQPEDFATYYCQQHNEYPWTFGGGTKVEIK
notes: Fc-silent anti-TIGIT antibody with engineered IgG1 Fc
For B1, which complement dependent cytotoxicity [5] is on record?
Its complement dependent cytotoxicity is “No cytotoxicity”.

What about the “binding to FcγR isotypes” value [6] of the same molecule?
The value was “no significant binding”.

And the “activity in FcγR-IIIA effector reporter bioassay” value [7]?
Its value is “inactive”.
